Results on 2 molecules are retold here after patent US20250352595A1, “PHARMACEUTICAL, FOOD, OR FEED COMPOSITION FOR PREVENTING OR TREATING MUSCLE LOSS CONTAINING RHODODENDRON MUCRONULATUM EXTRACT” (DR. OREGONIN INC., priority 2022, published 2025).

This experiment has as its system 3T3-L1 cells. Kind of experiment: Adipocyte differentiation (fat accumulation) measurement by Oil Red-O staining. Type of experiment: cell-based, mouse. Conditions: for adipocyte differentiation inhibitory activity depending on the treatment concentration: 3T3-L1 cells, Oil Red O staining; for inhibition at 20 µg/mL: Mus musculus, 20 μg/ml, the highest concentration in the experiment, 3T3-L1 differentiation, Oil Red O, read-out: effect of inhibiting adipogenesis. Here is the method:
3T3-L1 cells, a mouse-derived preadipocyte, were purchased from the Korean Cell Line Bank and used. 3T3-L1 cells were cultured in a 37° C.-wet CO2 incubator (5% CO2/95% air) using a cell culture medium (complete DMEM culture medium) in which 10% bovine calf serum (BCF), 100 units/mL penicillin, and 100 μg/mL streptomycin were added to a DMEM medium (Welgene). When the cells were 80% full of the culture dish, the cell monolayer was washed with phosphate buffer saline (PBS, pH 7.4), and then the cells were detached by adding trypsin-2.65 mM EDTA and subcultured, and the medium was exchanged every 2 days.
3T3-L1 cells were seeded onto 24-well plate at a concentration of 1×10^5 cells/well. After the cells reached the confluence state, the cell culture medium was sequentially exchanged with three kinds of differentiation-inducing cultures (DM), and the cells were cultured to induce differentiation into adipocytes. That is, the cell culture medium was exchanged with a differentiation-inducing culture medium in which DMI (1 μM dexamethasone, 0.5 mM 3-isobutyl-1-methylxanthine (IBMX), […]) was added to a DMEM medium containing 10% FBS to stimulate differentiation for 2 days. After 2 days, the cells were exchanged for a new differentiation-inducing culture medium in which 5 μg/mL insulin was added to DMEM medium containing 10% FBS to stimulate differentiation for another 2 days. After stimulating differentiation for a total of 4 days, cells were maintained in DMEM medium containing 10% FBS for 2 days to induce differentiation into adipocytes.
In order to investigate the effect of the test substance on adipocyte differentiation, the test substance was added to the differentiation-inducing culture medium and treated on the cells.
After treatment with the test substance while inducing differentiation of 3T3-L1 cells, the cells were rinsed with DPBS (Welgene), and then the cells were fixed at room temperature for 1 hour by adding 4% paraformaldehyde (PFA, Biosesang). After the cells were fixed, the cells were treated with oil red O (Sigma-Aldrich) solution and stained at room temperature for 1 to 2 hours. After observing the staining degree of adipocytes visually, the cells were rinsed with distilled water and observed for adipocytes through a microscope.

For `O=C1c2c(O)cc(O)cc2O[C@H](c2ccc(O)c(O)c2)[C@H]1OC1OC[C@@H](O)[C@@H](O)[C@@H]1O` (stereo partly drawn) [Taxifolin-3-O-arabinopyranoside, taxifolin-3-O-α-L-arabinopyranoside], the “adipocyte differentiation inhibitory activity depending on the treatment concentration” value is listed as “increases in a concentration-dependent manner” and the inhibition at 20 µg/mL is not below 40%.
Taken in the same sequence, the figures for `O=C1c2c(O)cc(O)cc2O[C@H](c2ccc(O)c(O)c2)[C@H]1O` [Taxifolin-aglycone, taxifolin] were “increases in a concentration-dependent manner” and not below 40%.
